Each structure is given as a SMILES string.

The test system of data set [1] is alpha-secretase processing of amyloid precursor protein (APP). Description: alpha-secretase processing of APP to s-APP alpha in SH-SY5Y neuroblastoma cell line. The class given is cell-based. Conditions: as nanospheres. An excerpt:
(§1) These events are well-described cell and pharmacological events associated with prevention of beta-secretase mediated formation of beta-amyloid, the presumptive cause of dementia in human Alzheimer's disease and in the sweAPP/PS1 mouse model of Alzheimer's disease.

For data set [2], the target named is T1, protein kinase C (PKC) isoform alpha (Homo sapiens, UniProt P17252).
T1 construct: (measured by membrane translocation) in the SH-SY5Y neuroblastoma cell line; endogenous in cells; host or cells: SH-SY5Y neuroblastoma cell line
The data set is described as follows: PKC alpha activation (membrane translocation) in SH-SY5Y cells. Conditions: as nanospheres; SH-SY5Y neuroblastoma cell line. The class given is cell-based.

Data set [3] concerns the target T2, protein kinase C (PKC) isoform epsilon (Homo sapiens, UniProt Q02156).
T2 construct: (measured by membrane translocation) in the SH-SY5Y neuroblastoma cell line; endogenous in cells; host or cells: SH-SY5Y neuroblastoma cell line
T2 sequence (Q02156 1-737): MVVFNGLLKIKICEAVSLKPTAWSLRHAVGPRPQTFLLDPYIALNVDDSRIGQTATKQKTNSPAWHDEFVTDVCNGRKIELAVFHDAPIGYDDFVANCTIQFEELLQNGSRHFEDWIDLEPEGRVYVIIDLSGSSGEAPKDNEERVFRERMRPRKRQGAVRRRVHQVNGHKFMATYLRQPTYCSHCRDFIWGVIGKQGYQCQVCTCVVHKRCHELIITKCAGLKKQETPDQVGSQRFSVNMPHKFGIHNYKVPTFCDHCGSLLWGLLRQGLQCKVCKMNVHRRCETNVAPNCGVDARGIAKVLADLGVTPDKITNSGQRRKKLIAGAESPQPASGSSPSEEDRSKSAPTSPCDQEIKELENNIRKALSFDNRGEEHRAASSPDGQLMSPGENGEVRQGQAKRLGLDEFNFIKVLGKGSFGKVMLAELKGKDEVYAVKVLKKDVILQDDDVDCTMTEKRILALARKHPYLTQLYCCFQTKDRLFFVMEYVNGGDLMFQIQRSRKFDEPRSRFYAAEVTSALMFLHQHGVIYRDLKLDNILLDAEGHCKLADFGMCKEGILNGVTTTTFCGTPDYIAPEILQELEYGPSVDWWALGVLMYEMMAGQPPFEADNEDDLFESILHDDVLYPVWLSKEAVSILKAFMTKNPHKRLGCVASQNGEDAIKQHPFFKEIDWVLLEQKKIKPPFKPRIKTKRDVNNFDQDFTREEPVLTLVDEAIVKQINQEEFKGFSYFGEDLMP
Description: PKC epsilon activation (membrane translocation) in SH-SY5Y cells. The class given is cell-based. Conditions: as nanospheres; SH-SY5Y neuroblastoma cell line.
Excerpt: as §1

Data set [4] can be described thus: Concentrations of Bryostatin in different solvents (normal phase HPLC). The class given is physicochemical. Conditions: for Concentration: theoretical 2.5 mg/100 mL. Here is the method:
Isopropyl alcohol, Extra Virgin olive oil, sesame oil, and vegetable oil were all used as solvents.
Thirty microliters of the stock solution were placed in each of 4 clean, dry HPLC vials. The ethanol was allowed to evaporate, leaving 25 micrograms in the vial. Then, 1.0 mL of the solvent was placed in the vial and vortexed to ensure proper mixing. These samples were then injected on a normal phase HPLC system, with a gradient of 10%-70% isopropyl alcohol in hexane as the mobile phase (specifically developed for this experiment).
The concentration of each vial theoretically should be 2.5 mg/100 mL.
The reason for the higher concentrations than the standard (isopropyl alcohol) is due to the baseline. While attempting a baseline subtraction for each oil, there was negative absorbance so the blank IPA sample was subtracted from each sample's baseline. While this incorporates a little more area for integration, the amount of Bryostatin in the oil was quantifiable.

Data set [5] deals with Mouse strain B6C3-Tg carrying mutant sweAPP and PS1 genes. Description: Water maze studies. The class given is in vivo. Conditions: 5 micrograms/mouse on alternative days orally in oil formulation; sweAPP/PS1 mice, 5-6 months of age; versus control animals. From the text: Mouse strain B6C3-Tg carrying mutant Swedish Amyloid precursor protein (sweAPP) and PS1 (presenilin-1) genes associated with early onset Alzheimer's disease were subjected to water maze tests at 5-6 months of age.

Consider `CCC/C=C/C=C/C(=O)O[C@H]1/C(=C/C(=O)OC)C[C@H]2C[C@H]([C@@H](C)O)OC(=O)C[C@H](O)C[C@@H]3C[C@H](OC(C)=O)C(C)(C)[C@](O)(C[C@@H]4C/C(=C/C(=O)OC)C[C@H](/C=C/C(C)(C)[C@]1(O)O2)O4)O3` [Bryostatin-1], for which, in data set [1], the “alpha-secretase processing of APP to s-APP alpha” value was “induce alpha-secretase processing of amyloid precursor protein (APP) to s-APP alpha”. Also, the “activation of PKC alpha (membrane translocation)” value in data set [2] is on record as “activate”. Further, in data set [3], the “activation of PKC epsilon (membrane translocation)” value was “activate”. In addition, the Concentration in data set [4] (Solvent Extra Virgin Olive Oil) is 2.9945 mg/100 mL; in data set [4] (Solvent Extra Virgin olive with mixed natural tocopherol antioxidants, lecithin and medium chain triglyceride emulsifiers) it was 2.4431 mg/100 mL; in data set [4] (Solvent Isopropyl Alcohol (standard)) it was 2.6035 mg/100 mL; in data set [4] (Solvent Vegetable Oil), 2.5475 mg/100 mL. In addition, the solubility in oils result in data set [4] (different types of oil) was “soluble”. In addition, in data set [5], the “protection against memory loss in water maze” value is reported as “significant protection”.

(Values after US10485766B2, “Drug delivery system and method for the treatment of neuro-degenerative disease” (Aphios Corporation, priority 2011, dated 2019).)
